The text below walks through data of article PMC9841524, “Structure-Based Rational Design of Small α-Helical Peptides with Broad-Spectrum Activity against Multidrug-Resistant Pathogens” (Journal of Medicinal Chemistry, 2022).

Experiment in all cases: microbe, parasite or virus in culture
The subject of one experiment is E. faecalis (ATCC 51575). As to conditions: Enterococcus faecalis, ATCC51575, 24 h, read-out: MIC, E. faecalis (ATCC 51575). As to the method:
(§1) Description of the characteristics and growth conditions of various bacterial strains used in the study are provided in the Supporting Information (Table S3). Antibacterial susceptibility testing was carried out using a standard microtiter dilution method recommended by the clinical and laboratory standard institute (CLSI) and measured as a minimum inhibitory concentration (MIC), the lowest peptide concentration that inhibited bacterial growth. Briefly, the overnight grown cultures in the recommended broth for each bacterial strain were diluted in cation-adjusted Mueller Hinton Broth (CAMHB) to give an inoculum of 10^6 colony-forming units (CFU)/mL. A 2-fold serially diluted test peptide solution (100 μL) was added to the microtiter plates. After adding bacterial suspension (100 μL), the plates were incubated at 37 °C for 24 h, and the MICs were determined. The same protocol was used to determine the MICs in the presence of salts and serum except using the media supplemented with various cationic salts (150 mM NaCl, 4.5 mM KCl, 6 mM NH4Cl, 1 mM MgCl2, and 2 mM CaCl2) or 25% FBS. The data was acquired from three independent assays performed in triplicate.
(§2) The bacterial strains employed in this study were obtained from the American Type Culture Collection (ATCC). Each strain was propagated as recommended by the ATCC, and each strain was stored as a frozen glycerol stock at -80°C. A bacterial colony was grown on the appropriate agar as indicated in Table S1 and was used to inoculate the appropriate broth. The culture was incubated at the appropriate conditions, as mentioned in Table S1. Following the incubation, the culture was diluted to an optical density 625 nm (OD625) of 0.1 in cation adjusted Mueller Hinton Broth (CAMHB), which is equivalent to 1 × 10^8 CFU/mL. The culture was further diluted to 1 × 10^6 CFU/mL, which was used to conduct the MIC determination assay. For the S. pneumoniae strains, CAMHB + 2.5% lysed horse blood was required for the assay. The strains with their […]
(§3) Table S3. Description of the characteristics and growth conditions of various bacterial strains

The next experiment relates to E. faecium (ATCC 27270). As to conditions: Enterococcus faecium, ATCC27270, 24 h, read-out: MIC, E. faecium (ATCC 27270). As to the method: as §1, §2, §3
In a further experiment the test system is E. faecium (ATCC 700221). The settings on record: Enterococcus faecium, ATCC700221, 24 h, read-out: MIC, E. faecium (ATCC 700221). How it is done:
as §1, §2, §3

Values after ≈ are worked out from the molar mass of the structure shown. Some results are limits rather than exact numbers.

Turning to `CN[C@H](CC(C)C)C(=O)N[C@H]1C(=O)N[C@@H](CC(N)=O)C(=O)N[C@H]2C(=O)N[C@H]3C(=O)N[C@H](C(=O)N[C@H](C(=O)O)c4cc(O)cc(O)c4-c4cc3ccc4O)[C@H](O)c3ccc(c(Cl)c3)Oc3cc2cc(c3O[C@@H]2O[C@H](CO)[C@@H](O)[C@H](O)[C@H]2O[C@H]2C[C@](C)(N)[C@H](O)[C@H](C)O2)Oc2ccc(cc2Cl)[C@H]1O` [vancomycin, reference compound], the MIC with E. faecalis (ATCC 51575) is > 50 µg/mL; in the experiment with E. faecium (ATCC 27270) it was 1.5 µg/mL (≈ 1.04 µM); in the experiment with E. faecium (ATCC 700221), > 50 µg/mL.
